#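 Grown in 96-well plates, cells were treated for 48 hours with each compound at five concentrations. Insufficient inhibition: endpoint recorded as highest concentration tested. TGI marks complete inhibition of growth.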
# What was measured:
# Experiment in all cases: NCI tumour cell line growth inhibition, 48 h
# MALME-3M melanoma = system: MALME-3M melanoma
# IGROV1 ovarian = system: IGROV1 ovarian
# TK-10 renal = system: TK-10 renal
# RPMI-8226 leukemia = system: RPMI-8226 leukemia
# HCT-15 colon = system: HCT-15 colon
# NCI-H23 lung = system: NCI-H23 lung
# KM20L2 colon = system: KM20L2 colon
# PC-3 prostate = system: PC-3 prostate
# SF-539 CNS = system: SF-539 CNS
# SNB-75 CNS = system: SNB-75 CNS
# MCF7 breast = system: MCF7 breast
# NCI/ADR-RES ovarian = system: NCI/ADR-RES ovarian
# COLO 205 colon = system: COLO 205 colon
# OVCAR-5 ovarian = system: OVCAR-5 ovarian
# SK-OV-3 ovarian = system: SK-OV-3 ovarian
# A498 renal = system: A498 renal
# U251 CNS = system: U251 CNS
# EKVX NSCLC = system: EKVX NSCLC
# NCI-H460 lung = system: NCI-H460 lung
# T-47D breast = system: T-47D breast
# SF-295 CNS = system: SF-295 CNS
# DU-145 prostate = system: DU-145 prostate
# HOP-92 NSCLC = system: HOP-92 NSCLC
# KM12 colon = system: KM12 colon
# NCI-H226 lung = system: NCI-H226 lung
# SN12C renal = system: SN12C renal
# SR leukemia = system: SR leukemia
# UO-31 renal = system: UO-31 renal
# MDA-MB-435 = system: MDA-MB-435
# UACC-62 melanoma = system: UACC-62 melanoma
# LXFL 529 NSCLC = system: LXFL 529 NSCLC
# 786-0 renal = system: 786-0 renal
# HCC-2998 colon = system: HCC-2998 colon
# SNB-78 CNS = system: SNB-78 CNS
# UACC-257 melanoma = system: UACC-257 melanoma
# MDA-N = system: MDA-N
# A549 NSCLC = system: A549 NSCLC
# OVCAR-8 ovarian = system: OVCAR-8 ovarian
# HOP-62 NSCLC = system: HOP-62 NSCLC
# SK-MEL-2 melanoma = system: SK-MEL-2 melanoma
# DMS 273 small cell lung = system: DMS 273 small cell lung
# DMS 114 small cell lung = system: DMS 114 small cell lung
# M19-MEL melanoma = system: M19-MEL melanoma
# CCRF-CEM leukemia = system: CCRF-CEM leukemia
# K-562 leukemia = system: K-562 leukemia
# SK-MEL-28 melanoma = system: SK-MEL-28 melanoma
# HL-60(TB) leukemia = system: HL-60(TB) leukemia
# OVCAR-4 ovarian = system: OVCAR-4 ovarian
# LOX IMVI melanoma = system: LOX IMVI melanoma
# SF-268 CNS = system: SF-268 CNS
# OVCAR-3 ovarian = system: OVCAR-3 ovarian
# M14 melanoma = system: M14 melanoma
# MOLT-4 leukemia = system: MOLT-4 leukemia
# SW-620 colon = system: SW-620 colon
# RXF 393 renal = system: RXF 393 renal
# MDA-MB-231 breast = system: MDA-MB-231 breast
# NCI-H522 lung = system: NCI-H522 lung
# SK-MEL-5 melanoma = system: SK-MEL-5 melanoma
# BT-549 breast = system: BT-549 breast
# SNB-19 CNS = system: SNB-19 CNS
# ACHN renal = system: ACHN renal
# CAKI-1 renal = system: CAKI-1 renal
# HT29 colon = system: HT29 colon
# HCT-116 colon = system: HCT-116 colon
smiles,measurement,setting,value
CC(C)Cn1cnc2c(Sc3c([N+](=O)[O-])ncn3C)nc(N)nc21,TGI,MALME-3M melanoma,> 59.8 µM
same,TGI,IGROV1 ovarian,> 100 µM
same,TGI,TK-10 renal,> 100 µM
same,TGI,RPMI-8226 leukemia,> 100 µM
same,TGI,HCT-15 colon,> 100 µM
same,TGI,NCI-H23 lung,> 100 µM
same,TGI,KM20L2 colon,> 100 µM
same,TGI,PC-3 prostate,> 100 µM
same,TGI,SF-539 CNS,> 100 µM
same,TGI,SNB-75 CNS,> 100 µM
same,TGI,MCF7 breast,> 100 µM
same,TGI,NCI/ADR-RES ovarian,> 100 µM
same,TGI,COLO 205 colon,> 62.9 µM
same,TGI,OVCAR-5 ovarian,> 100 µM
same,TGI,SK-OV-3 ovarian,> 100 µM
same,TGI,A498 renal,> 100 µM
same,TGI,U251 CNS,> 100 µM
same,TGI,EKVX NSCLC,> 100 µM
same,TGI,NCI-H460 lung,> 100 µM
same,TGI,T-47D breast,> 100 µM
same,TGI,SF-295 CNS,> 100 µM
same,TGI,DU-145 prostate,> 100 µM
same,TGI,HOP-92 NSCLC,36.9 µM
same,TGI,KM12 colon,> 100 µM
same,TGI,NCI-H226 lung,> 100 µM
same,TGI,SN12C renal,> 100 µM
same,TGI,SR leukemia,> 100 µM
same,TGI,UO-31 renal,> 75 µM
same,TGI,MDA-MB-435,> 100 µM
same,TGI,UACC-62 melanoma,> 100 µM
same,TGI,LXFL 529 NSCLC,> 100 µM
same,TGI,786-0 renal,> 100 µM
same,TGI,HCC-2998 colon,> 100 µM
same,TGI,SNB-78 CNS,> 100 µM
same,TGI,UACC-257 melanoma,> 100 µM
same,TGI,MDA-N,> 100 µM
same,TGI,A549 NSCLC,> 100 µM
same,TGI,OVCAR-8 ovarian,> 100 µM
same,TGI,HOP-62 NSCLC,> 100 µM
same,TGI,SK-MEL-2 melanoma,81.9 µM
same,TGI,DMS 273 small cell lung,> 100 µM
same,TGI,DMS 114 small cell lung,> 100 µM
same,TGI,M19-MEL melanoma,> 100 µM
same,TGI,CCRF-CEM leukemia,> 100 µM
same,TGI,K-562 leukemia,> 100 µM
same,TGI,SK-MEL-28 melanoma,> 100 µM
same,TGI,HL-60(TB) leukemia,> 100 µM
same,TGI,OVCAR-4 ovarian,> 100 µM
same,TGI,LOX IMVI melanoma,> 100 µM
same,TGI,SF-268 CNS,> 100 µM
same,TGI,OVCAR-3 ovarian,> 57.4 µM
same,TGI,M14 melanoma,> 100 µM
same,TGI,MOLT-4 leukemia,> 100 µM
same,TGI,SW-620 colon,> 100 µM
same,TGI,RXF 393 renal,> 100 µM
same,TGI,MDA-MB-231 breast,> 100 µM
same,TGI,NCI-H522 lung,89.1 µM
same,TGI,SK-MEL-5 melanoma,> 100 µM
same,TGI,BT-549 breast,> 100 µM
same,TGI,SNB-19 CNS,> 100 µM
same,TGI,ACHN renal,> 100 µM
same,TGI,CAKI-1 renal,> 100 µM
same,TGI,HT29 colon,> 100 µM
same,TGI,HCT-116 colon,> 100 µM

# Reference: PubChem BioAssay (NCI)
